Results reported in patent US20090018146A1, “Combination Therapy with Triterpenoid Compounds and Proteasome Inhibitors” (Research Development Corporation, priority 2005, published 2009).

Experiments:
Hsp90 = test: Western blot of Hsp90 protein in avicin D treated Jurkat cells; format: cell-based, human; conditions: avicin D 1 μM, within one hour up to 4 hours, western blot vs untreated
Procedure: (§1) Jurkat T cells (2 μg/ml=1 μM), U-937 (4 μg/ml), MJ (5 μg/ml), and HH cells (2.5 μg/ml) were treated for 0-24 hours with the indicated concentrations of avicin D. PBLs from the patients or normal blood were treated with 5 μg/ml of avicin D for 24 hours.
(§2) At the end of treatments, cells were harvested, washed with sterile ice-cold PBS and cytoplasmic extracts (CE) were prepared by lysing the cells in CE buffer containing 10 mM Hepes-Cl pH 7.5, 10 mM KCl, 0.1 mM EDTA, 0.1 mM EGTA, 0.3% NP40, and a protease inhibitor cocktail (Sigma). After centrifugation and separating the supernatant (CE proteins), the pellet was resuspended in a buffer containing 20 mM Hepes-Cl, 400 mM NaCl, 1 mM EDTA, 1 mM EGTA, and protease inhibitor cocktail (Sigma). The nuclear protein extraction proceeded for 30 min. on ice followed by centrifugation at 14,000 rpm for 5 min at 4° C. The clear supernatant containing nuclear proteins (NE) was collected, glycerol (10%) was added, and proteins stored at −80° C. until use.
(§3) SDS-PAGE and immunoblot procedures were essentially performed as described (Sambrook, 1989). […] Protein bands were detected using the ECL chemiluminescence kit from Amersham as per the manufacturer's protocol.
(§4) Quantitation of proteins (western) and transcripts (RT-PCR) was performed using the NIH 1.61 image software.

Hsp27 = test: Western blot of Hsp27 protein in avicin D treated Jurkat cells; format: cell-based, human; conditions: avicin D 1 μM, 2-4 hours
Procedure: as §1, §2, §3, §4

[1] = system: Hsp90α, Hsc70, and Hsp60 transcripts; test: One-step RT-PCR of Hsp90α, Hsc70 and Hsp60 transcripts in Jurkat cells; format: cell-based, human
Procedure: Total RNA purified using Trizol method (Invitrogen) was subjected to DNAseI (RNAase free, Sigma Chemical Co.) treatment to remove any residual DNA, followed by heat inactivation and addition of 1 mM EDTA. Absence of genomic DNA was confirmed by performing PCR using Taq DNA polymerase. About 50-100 ng of purified total RNA was used in a one-step RT-PCR reaction kit from Invitrogen in a Techne Genius machine. The samples were separated on 0.8% agarose-TBE gels and viewed by staining with ethidium bromide.
as §4

Hsp70 transcript = test: Northern blot of Hsp70 transcript in Jurkat cells; format: cell-based, human
Text: (§5) Total RNA from the control and avicin treated Jurkat T cells was made using Trizol (Invitrogen). Equal amounts of RNA were separated on form amide gels and transferred to nylon membranes (Hybond N+, Amersham) and UV cross-linked using UV Stratalinker (Stratagene). Staining the membranes with 0.03% methylene blue solution in 0.3% sodium acetate, pH 5.2, monitored equal loading. The DNA probes for Hsp70 and Hsp90 were purchased from StressGen as pUC plasmids and used according to the manufacturer's protocol. The DNA fragments were radiolabeled using a Nick Translation kit from Gibco BRL and [^32P] dCTP (Amersham). The membranes were exposed for autoradiography after hybridization using ExpressHyb (Clontech) solution at 58° C. for 1 hour and 5 washes, each of 20 minutes, with 5× SSC containing 0.1% SDS at 50° C.

Hsp90 transcript = test: Northern blot of Hsp90 transcript in Jurkat cells; format: cell-based, human
Text: as §5

caspase 9 = test: Western blot of caspase 9 cleavage in Jurkat cells; format: cell-based, human; conditions: 2 hours of treatment
Procedure: as §1, §2, §3

20S proteasomal activity = target: T1, 20S proteasomal activity (Homo sapiens, UniProt Q99436); test: 20S proteasomal assay in Jurkat cells; format: cell-based; conditions: for decrease in the 20S proteasomal activity: avicin D 1 μM
T1 construct: Proteasomal extracts (PE) were prepared; endogenous in cells; host or cells: Jurkat T cells (proteasomal extracts)
T1 sequence (Q99436 44-277): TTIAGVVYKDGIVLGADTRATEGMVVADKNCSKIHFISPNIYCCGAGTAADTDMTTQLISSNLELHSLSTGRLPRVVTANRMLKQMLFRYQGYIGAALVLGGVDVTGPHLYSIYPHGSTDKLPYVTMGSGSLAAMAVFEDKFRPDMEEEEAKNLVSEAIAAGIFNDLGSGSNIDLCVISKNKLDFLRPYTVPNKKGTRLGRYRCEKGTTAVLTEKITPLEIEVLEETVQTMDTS
Procedure: Jurkat T cells were treated with 1 μM of avicin D for 0-4 hours. Proteasomal extracts (PE) were prepared as described previously (18) in a buffer containing 50 mM Hepes pH 8, 5 mM EGTA, 0.3% NP40, and 10% glycerol. The assay reaction contained 20 mM Tris-Cl pH7.2, 0.1 mM EDTA, 1 mM β-mercaptoethanol, 5 mM ATP, 20% glycerol, 0.02% SDS, and 0.04% NP40. About 10 μg of the PE proteins and BocLRR-AMC (0.1 mM), which allows measurement of the trypsin-like activity of proteasomes, was used as substrate. The reaction was carried out at 30° C. for 30 minutes and the fluorescence was read at 380 nm (excitation) and 460 nm (emission) in a Perkin Elmer HTS 7000 Plus, Bioassay Reader.
Statistical significance of differences observed in the proteasomal activity in avicin treated cells compared with the untreated cells was determined by using an unpaired Student t test. The minimum level of significance was a P<0.05.

Hsp70 = test: Western blot of Hsp70 in leukemic/lymphoma cell-lines; format: cell-based, human; conditions: Jurkat, U937, MJ-1, and HH cells, 24 hours post-treatment
Procedure: Human Jurkat T cell leukemia, monocytic U937 cells, and cutaneous T-cell lymphoma (CTCL) cell lines MJ (G11) and HH were obtained from American Type Culture Collection (Rockville, Md.) and grown in RPMI 1640 medium supplemented with 10% FBS and 2 mM glutamine.
as §1
as §2, with “The nuclear protein extraction proceeded for 30 min. on ice followed by centrifugation at 14,000 rpm for 5 min at 4° C. The clear supernatant containing nuclear proteins (NE) was collected, glycerol (10%) was added, and proteins stored at −80° C. until use.” left out
as §3, §4

CTCL cells = test: Apoptosis in PBL from Sezary syndrome patients; format: cell-based, human
Procedure: as §1

In the case of C=C[C@](C)(O)CC/C=C(\CO)C(=O)O[C@H]1[C@H](O)[C@@H](O)[C@H](O[C@@](C)(C=C)CC/C=C(\CO)C(=O)O[C@H]2C[C@]3(C(=O)O[C@@H]4O[C@H](CO)[C@@H](O)[C@H](O)[C@H]4O[C@@H]4O[C@@H](C)[C@H](O[C@@H]5O[C@@H](CO)[C@H](O)[C@H]5O)[C@@H](O[C@@H]5O[C@H](CO)[C@@H](O)[C@H](O)[C@H]5O)[C@H]4O)[C@H](O)C[C@]4(C)C(=CC[C@@H]5[C@@]6(C)CC[C@H](O[C@@H]7O[C@H](CO[C@@H]8O[C@H](C)[C@H](O)[C@H](O)[C@H]8O[C@@H]8OC[C@@H](O)[C@H](O)[C@H]8O)[C@@H](O)[C@H](O)[C@H]7NC(C)=O)C(C)(C)[C@@H]6CC[C@]54C)[C@@H]3CC2(C)C)O[C@@H]1C [avicin D], the “protein levels of Hsp90” value (Hsp90) was “significant decrease”, the “increase of Hsp27” value (Hsp27) was 1.4 fold and the “changes in the transcripts encoding Hsp90α, Hsc70, and Hsp60 (RT-PCR)” value [1] was “marginal”. For the same compound, the “increase in Hsp70 transcript (Northern blot)” value (Hsp70 transcript) was about 1.4 fold, the “increase in Hsp90 transcript (Northern blot)” value (Hsp90 transcript) was about 2 fold and the “cleavage of caspase 9” value (caspase 9) was “increased cleavage”. For the same compound, the “decrease in the 20S proteasomal activity” value (20S proteasomal activity; 2 hours) was 33%, the “decrease in the 20S proteasomal activity” value (20S proteasomal activity; 4 hours) was 41% and the “decrease in proteasome activity” value (20S proteasomal activity; during 2-4 hours of treatment) was 30-40%. The Hsp70 protein level (Hsp70) was “significant decrease” and the apoptosis (CTCL cells) was “caused apoptosis”.
